One data set relates to HCT-116. The experiment in a line: NCI in vitro cytotoxicity assay (SRB), HCT-116. The format is cell-based. To be noted: Homo sapiens, 48 h exposure, sulforhodamine B assay, mean graph, read-out: Log10 GI50 (HCT-116) (converted). The method, then: (§1) Cell culture and drug application procedures have been described previously ([Boyd and Paull, 1995]). Briefly, cell lines were inoculated into a series of 96-well microtiter plates, with varied seeding densities depending on growth characteristics of each cell line. Following a 24 h drug free incubation, test agents were added at five 10-fold dilutions with a maximum concentration of 100 μM. Cellular protein levels were determined after 48 h drug exposure by sulphorhodamine B colorimetry.

The subject of a further data set is SK-MEL-5. The experiment in a line: NCI in vitro cytotoxicity assay (SRB), SK-MEL-5. It is filed as cell-based. The note with it: Homo sapiens, 48 h exposure, sulforhodamine B assay, mean graph, read-out: Log10 GI50 (SK-MEL-5) (converted). The method, then: as §1
The subject of data set [1] is CYP1A1 protein expression in HCT 116 cells. As to the kind of experiment: Western blot of CYP1A1 protein, HCT 116 lysates. It is filed as cell-based, human. Here is the method: Whole cell lysates were prepared for examination of CYP1A1 protein expression from untreated MCF-7, IGROV-1 and HCT 116 cultures and following exposure of cells to compounds 1, 2, 2a, 2b, 3, 3a, 3b, 4, 4a and 4b. Following protein determination (n=3, [Bradford, 1976]) and addition of sample buffer, samples were boiled at 95°C for 5 min and solubilised proteins (50 μg) were separated by sodium dodecyl sulphate (SDS) polyacrylamide gel (10%) electrophoresis. Proteins were electroblotted to polyvinylidene difluoride (PVDF) membranes and probed for CYP1A1 protein with polyclonal antiserum specific for human CYP1A1/1A2 (Gentest Corporation). Secondary antibody was conjugated to alkaline phosphatase, and CYP1A1 was detected following brief (<10 min) incubation with bromochloroindolyl phosphate and nitro-blue tetrazolium in alkaline phosphatase buffer. Molecular weight markers and a positive control of recombinant CYP1A1 (Gentest Corporation), included in all blots, confirmed detection of 52 kDa CYP1A1 protein.
For orientation: In western blotting, separated proteins are transferred to a membrane and probed.

For the next data set, the system named is SNB-75. The experiment in a line: NCI in vitro cytotoxicity assay (SRB), SNB-75. The format is cell-based. To be noted: Homo sapiens, 48 h exposure, sulforhodamine B assay, mean graph, read-out: Log10 GI50 (SNB-75) (converted). The method, then: as §1
A further data set relates to NCI-H322M. The experiment in a line: NCI in vitro cytotoxicity assay (SRB), NCI-H322M. It is filed as cell-based. To be noted: Homo sapiens, 48 h exposure, sulforhodamine B assay, mean graph, read-out: Log10 GI50 (NCI-H322M) (converted). Here is the method:
as §1
(In general: The SRB assay estimates cell density from bound dye.)

The subject of another data set is NCI/ADR-RES. As to the kind of experiment: NCI in vitro cytotoxicity assay (SRB), NCI/ADR-RES. It is filed as cell-based. The note with it: Homo sapiens, 48 h exposure, sulforhodamine B assay, mean graph, read-out: Log10 GI50 (NCI/ADR-RES) (converted). The method, then:
as §1

In another data set the test system is HS 578T. As to the kind of experiment: NCI in vitro cytotoxicity assay (SRB), HS 578T. It is filed as cell-based. The note with it: Homo sapiens, 48 h exposure, sulforhodamine B assay, mean graph, read-out: Log10 GI50 (HS 578T) (converted). Here is the method:
as §1

The test system of the next data set is MALME-3M. As to the kind of experiment: NCI in vitro cytotoxicity assay (SRB), MALME-3M. It is filed as cell-based. To be noted: Homo sapiens, 48 h exposure, sulforhodamine B assay, mean graph, read-out: Log10 GI50 (MALME-3M) (converted). Here is the method:
as §1

Another data set relates to BT-549. As to the kind of experiment: NCI in vitro cytotoxicity assay (SRB), BT-549. It is filed as cell-based. To be noted: Homo sapiens, 48 h exposure, sulforhodamine B assay, mean graph, read-out: Log10 GI50 (BT-549) (converted). The method, then:
as §1

Another data set concerns SK-MEL-28. The experiment in a line: NCI in vitro cytotoxicity assay (SRB), SK-MEL-28. The format is cell-based. The note with it: Homo sapiens, 48 h exposure, sulforhodamine B assay, mean graph, read-out: Log10 GI50 (SK-MEL-28) (converted). Here is the method: as §1
Data set [2] deals with MDA 468 (ER−) human derived breast carcinoma cells. The experiment in a line: Growth inhibitory assay (MTT), MDA 468. To be noted: Breast carcinoma cell, ER− MDA 468, 3 days (72 h) treatment, n=8, representative mean, ^a = biphasic dose response. It is filed as cell-based. The method, then:
Prodrugs were prepared as 10 mM top stocks, dissolved in dimethylsulphoxide (DMSO) or sterile ddH2O, and stored at 4°C, protected from light for a maximum period of 4 weeks. MCF-7 (ER+) and MDA 468 (ER−) human derived breast carcinoma cells, cultivated at 37°C in an atmosphere of 5% CO2 in RPMI 1640 medium supplemented with 2 mM L-glutamine and 10% foetal calf serum, were routinely subcultured twice weekly to maintain continuous logarithmic growth. Cells were seeded into 96-well microtiter plates at a density of 5×10^3 per well and allowed 24 h to adhere before drugs were introduced (final concentration 0.1 nM–100 μM, n=8). Serial drug dilutions were prepared in medium immediately prior to each assay. Viable cell masses at the time of drug addition (time-zero), and following 72 h drug exposure were determined by cell-mediated 3-(4,5-dimethylthiazol-2-yl)-2,5-diphenyltetrazolium bromide (MTT) reduction. MTT was added to each well (final concentration 400 μg ml^−1) and plates were incubated at 37°C for 4 h to allow reduction of MTT by viable cell dehydrogenases to an insoluble formazan product. Well supernatants were aspirated and cellular formazan solubilised by addition of DMSO : glycine buffer (pH 10.5) (4 : 1). Cell growth as well as drug activity were determined by measuring absorbance at 550 nm using an Anthos Labtec systems plate reader.

For a further data set, the system named is HOP-62. The experiment in a line: NCI in vitro cytotoxicity assay (SRB), HOP-62. It is filed as cell-based. To be noted: Homo sapiens, 48 h exposure, sulforhodamine B assay, mean graph, read-out: Log10 GI50 (HOP-62) (converted). Here is the method: as §1
In the next data set the test system is IGROV1. The experiment in a line: NCI in vitro cytotoxicity assay (SRB), IGROV1. The format is cell-based. The note with it: Homo sapiens, IGROV-1; 48 h exposure, sulforhodamine B assay, mean graph; read-out: Log10 GI50 (IGROV1) (converted). Here is the method:
as §1

The test system of another data set is HCT-15. As to the kind of experiment: NCI in vitro cytotoxicity assay (SRB), HCT-15. The format is cell-based. To be noted: Homo sapiens, 48 h exposure, sulforhodamine B assay, mean graph, read-out: Log10 GI50 (HCT-15) (converted). Here is the method:
as §1

Data on two compounds can be found in article PMC2375326, “In vitro evaluation of amino acid prodrugs of novel antitumour 2-(4-amino-3-methylphenyl)benzothiazoles” (British Journal of Cancer, 2002).

Structures are written as SMILES.

Take `Cc1cc(-c2nc3cc(F)ccc3s2)ccc1N` [Compound 2, 2-(4-Amino-3-methylphenyl)-5-fluorobenzothiazole]: the GI50 was 15.8 µM with HCT-116; above 100 µM with SK-MEL-5; 17 µM in the data set on SNB-75; 11 µM with NCI-H322M; 66.1 µM in the data set with NCI/ADR-RES; 46.8 µM in the data set on HS 578T. In addition, the GI50 was 91.2 µM in the data set on MALME-3M; above 100 µM in the data set with BT-549; above 100 µM in the data set with SK-MEL-28; below 0.0001 µM in [2]; 18.6 µM with HOP-62; below 0.01 µM in the data set on IGROV1. In the data set on HCT-15, the GI50 is 7.94 µM. In data set [1], the “CYP1A1 protein expression (Western blot)” value was “not induced”.

In the case of `Cc1cc(-c2nc3cc(F)ccc3s2)ccc1NC(=O)[C@@H](N)CCCCN` [Compound 2b], the GI50 in the data set with HCT-116 was 2.88 µM; with SK-MEL-5, 15.5 µM; with SNB-75 it was 1.62 µM; in the data set on NCI-H322M, 3.09 µM; with NCI/ADR-RES, 15.1 µM; in the data set on HS 578T it was 3.63 µM. Besides, the GI50 is 17.4 µM in the data set with MALME-3M; 14.1 µM in the data set with BT-549; 22.4 µM in the data set with SK-MEL-28; 0.0577 µM in data set [2]; 6.31 µM with HOP-62; below 0.01 µM in the data set on IGROV1. For the same compound, in the data set on HCT-15, the GI50 is 5.25 µM. Further, in [1], the “CYP1A1 protein expression (Western blot)” value is “not induced”.
